# Measurements as given in patent US6784164B2, “Choline binding proteins for anti-pneumococcal vaccines” (priority 1996, dated 2004).
# Like-named read-outs stand apart in the source and are kept apart here. No end group written: not given here.
# B1: rsVCAM: recombinant soluble vascular cell adhesion molecule-1 (protein)
# chain: FKIETTPESRYLAQIGDSVSLTCSTTGCESPFFSWRTQIDSPLNGKVTNEGTTSTLTMNPVSFGNEHSYLCTATCESRKLEKGIQVEIYSFPKDPEIHLSGPLEAGKPITVKCSVADVYPFDRLEIDLLKGDHLMKSQEFLEDADRKSLETKSLEVTFTPVIEDIGKVLVCRAKLHIDEMDSVPTVRQAVKELQVYISPKNTVISVNPSTKLQEGGSVTMTCSSEGLPAPEIFWSKKLDNGNLQHLSGNATLTLIAMRMEDSGIYVCEGVNLIGKNRKEVELIVQEKPFTVEISPGPRIAAQIGDSVMLTCSVMGCESPSFSWRTQIDSPLSGKVRSEGTNSTLTLSPVSFENEHSYLCTVTCGHKKLEKGIQVELYSFPRDPEIEMSGGLVNGSSVTVSCKVPSVYPLDRLEIELLKGETILENIEFLEDTDMKSLENKSLEMTFIPTIEDTGKALVCQAKLHIDDMEFEPKQRQSTQTLYVNVAPRDTTVLVSPSSILEEGSSVNMTCLSQGFPAPKILWSRQLPNGELQPLSENATLTLISTKMEDSGVYLCEGINQAGRSRKEVELIIQVTPKDIKLTAFPSESVKEGDTVIISCTCGNVPETWIILKKKAETGDTVLKSIDGAYTIRKAQLKDAGVYECESKNKVGSQLRSLTLDVQGRENNKDYFSPE
# B2: CBP112: 112 kDa surface exposed pneumococcal choline binding protein, N-terminal SEQ ID NO:1 (protein)
# chain: MMREIQLDRRKHTQNVALNIKLSAIKTKYLRELNVLEEKSKDELPSEIKAKLDAAFEKFKKDTLKPGEKVAEAKKKVEEAKKKAEDQKEEDRRNYPTNTYKTLELEIAEFDVKVKEAELELVKEEAKESRNEGTIKQAKEKVESKKAEATRLENIKTDRKKAEEEAKRKADAKLKEANVATSDQGKPKGRAKRGVPGELATPDKKENDAKSSDSSVGEETLPSSSLKSGKKVAEAEKKVEEAEKKAKDQKEEDRRNYPTNTYKTLDLEIAESDVKVKEAELELVKEEAKEPRDEEKIKQAKAKVESKKAEATRLENIKTDRKKAEEEAKRKAAEEDKVKEKPAEQPQPAPATQPEKPAPKPEKPAEQPKAEKTDDQQAEEDYARRSEEEYNRLTQQQPPKTEKPAQPSTPKTGWKQENGMWYFYNTDGSMATGWLQNNGSWYYLNANGAMATGWLQNNGSWYYLNANGSMATGWLQNNGSWYYLNANGAMATGWLQYNGSWYYLNSNGAMATGWLQYNGSWYYLNANGDMATGWLQNNGSWYYLNANGDMATGWLQYNGSWYYLNANGDMATGWVKDGDTWYYLEASGAMKASQWFKVSDKWYYVNGSGALAVNTTVDGYGVNANGEWVNZ
# B3: 2-phospho-D-glycerate hydrolyase (protein, UniProt P00924 2-437, looked up)
# Enolase 1: AVSKVYARSVYDSRGNPTVEVELTTEKGVFRSIVPSGASTGVHEALEMRDGDKSKWMGKGVLHAVKNVNDVIAPAFVKANIDVKDQKAVDDFLISLDGTANKSKLGANAILGVSLAASRAAAAEKNVPLYKHLADLSKSKTSPYVLPVPFLNVLNGGSHAGGALALQEFMIAPTGAKTFAEALRIGSEVYHNLKSLTKKRYGASAGNVGDEGGVAPNIQTAEEALDLIVDAIKAAGHDGKIKIGLDCASSEFFKDGKYDLDFKNPNSDKSKWLTGPQLADLYHSLMKRYPIVSIEDPFAEDDWEAWSHFFKTAGIQIVADDLTVTNPKRIATAIEKKAADALLLKVNQIGTLSESIKAAQDSFAAGWGVMVSHRSGETEDTFIADLVVGLRTGQIKTGAPARSERLAKLNQLLRIEEELGDNAVFAGENFHHGDKL
# notes: glycolytic enzyme enolase (Sigma), yeast
# How the values were obtained:
# [1] = test system: Adherence of S. pneumoniae to immobilized fibronectin; type: cell-based; details: for inhibition of pneumococcal adherence to fibronectin: added to coated wells 15 min prior to bacteria
# Protocol: (§1) Fibronectin, its recombinant fragments, or rsVCAM were noncovalently immobilized through passive adsorption to 60 well Terasaki trays (wettable polystyrene [plasma treated], Robbins Scientific, Sunnyvale, Calif.). Briefly, substrates were reconstituted ([…]) in phosphate buffered saline (DPBS) and allowed to coat the Teresaki trays for 90 min at 37° C. […] Prior to use, the plates were washed five times with DPBS and excess liquid was removed from the wells.
# (§2) Bacteria were labeled with fluorescein isothyocyanate as described [Geelen et al., Infect. Immun., 61:1538-1543 (1993)] and were resuspended in DPBS supplemented with 0.05% glucose and Ca^++ and Mg^++. Bacterial suspensions were brought to an A620 of 0.04, previously established to equal 1×10^7 cfu/ml of S. pneumoniae. 10 μl of bacteria were added to each well and incubated statically for 1 hour at 37° C. Unbound bacteria were eliminated by washing five times with DPBS. Bound bacteria were fixed to the surface by incubation with 2.5% glutaraldehyde solution for 3 minutes. Bacteria were counted visually with an inverted microscope (Nikon) equipped for fluorescence with an IF DM 510 filter. Binding was expressed as the number of attached bacteria per 0.25 mm^2 surface area. Values were corrected for non-specific binding by subtracting adherence to uncoated wells and are presented as the mean±standard deviation of at least 3 experiments with 3 to 6 wells/plate/experiment. For some experiments, binding was performed in the presence of rabbit polyclonal anti-pneumococcus R6 antibody or one of the following monoclonal antibodies: anti-choline (TEPC-15), anti-PspA Xi126 and XiR278 [McDaniel et al., Microb. Pathog., 13:261-9 (1992)]; anti-pneumococcal surface adhesin A PsaA [Sampson et al., Infect. Immun., 62:319-324 (1994)]; anti-VLA-4 (R & D Systems); and anti-VCAM-1 (R & D Systems). Alternatively, potential inhibition of pneumococcal binding was assessed in the presence of purified recombinant PspA or PsaA.
# S. pneumoniae = assay: Direct adherence of S. pneumoniae to wells coated with VCAM-1, fibronectin fragments, peptides or enolase; type: cell-based
# Protocol: as §1, §2
# [2] = Antigenicity: CBPs injected into rabbits, sera tested by Western blot; design: species or system rabbit
# Protocol: Vaccine candidates must be antigenic. The CBPs from choline agarose chromatography were injected into rabbits and sera tested for cross reactivity. Several proteins produced a strong signal. Prominent were CBPs 112, 90, 84 and 70, and 50 (FIGS. 1 and 2).
# White rabbits were immunized by intradermal injection in the back with 500 μg purified CBPs in 1 ml of a 1:1 emulsion of buffer and Complete Freund's Adjuvant. The rabbits were boosted with a subcutaneous dorsal injection of 250 μg of purified CBPs in 1 ml of 1:1 buffer to Incomplete Freund's Adjuvant at weeks 3, 6, 9, 12, and 15. Rabbits were pre-bled, and test bled approximately 10 days prior to each boost. Serum obtained at week 16 were used in all experiments.
# (§3) The CBPs were examined by SDS-PAGE and Western blot using the following antibodies: (1) polyclonal anti-pneumococcal serum (rabbit or “ROB”); (2) anti-PspA monoclonal antibody; (3) anti-FITC monoclonal antibody; (4) convalescent human anti-pneumococcal sera and (5) polyclonal anti-CBP antibody. 9 CBPs were identified on SDS-PAGE/Western blot.
# [3] = Western blot of CBPs with pooled human convalescent sera
# Protocol: as §3
# The CBPs were analyzed by 7.5% sodium dodecyl sulfate polyacrylamide gel electrophoresis (SDS-PAGE) and by Western blotting after electrophoretic transfer to an Immobilon-P transfer membrane (Millipore Corporation, Bedford, Mass.). For some experiments, pneumococci were labelled with fluorescein isothiocyanate (FITC) as described in the adherence assay. Western blot analysis was carried out with anti-FITC (Moleular Probes), anti-CBP or covalescent antisera each at a dilution of 1:1000. Bound antibody was detected with peroxidase conjugated goat anti-rabbit serum detected with the Chemiluminesce Kit from Amersham (Cambridge, Mass.). The convalescent sera was a mixture of sera pooled from five patients collected one month after recovery from bacteremia and pneumonia. The capsular serotypes of these infecting pneumococci were 3, 7, 14, 22, and 23.
molecule,measurement,setting,value
NCCCC[C@H](N)C(=O)O [L-lysine],inhibition of pneumococcal adherence to fibronectin,[1]; 0.1 M,67%
same,inhibition of pneumococcal adherence to fibronectin,[1]; 0.5M,95%
same,inhibition of pneumococcal adherence to fibronectin,[1]; 1 M,99%
NCCCCCC(=O)O [6-amino hexanoic acid],inhibition of pneumococcal adherence to fibronectin (in words),[1],not able to inhibit adherence
C[N+](C)(C)CCO [choline],decrease in binding of pneumococci to fibronectin,[1]; preincubation of bacteria in 10% choline solution,greater than 50%
WQPPRARI [FN5],direct adherence of S. pneumoniae to coated substrate (in words),S. pneumoniae,able to support adherence
"CBP84: pneumococcal choline binding protein, SEQ ID NO:3, 85% identical to Elongation Factor G (XREFSLEKTRNIGIMAHVDAGKT; X: residue not identified in the source)",signal with sera of rabbits injected with CBPs,[2],strong signal
B1,inhibition of adherence of S. pneumoniae to fibronectin,[1]; preincubation of the bacteria with the substance,96%
same,density of S. pneumoniae adhering directly to coated wells,S. pneumoniae,75±18 bacteria/0.25 mm ^2
same,direct adherence as share of adherence to whole fibronectin,S. pneumoniae,6%
B2,signal with pooled human antisera from individuals recovering from pneumococcal disease,[3],strong signal
same,signal with sera of rabbits injected with CBPs,[2],strong signal
B3,maximum inhibition of pneumococcal adherence to fibronectin,"[1]; 1000 U/ml, added to fibronectin coated wells prior to bacteria",98%
same,direct adherence of S. pneumoniae to coated substrate (in words),S. pneumoniae,No direct adherence
